# From US20110263510A1, “Methods of Inhibiting Cell Death or Inflammation in a Mammal” (priority 2006, published 2011)
# Ends that are not written are not given here. Peptide text beside a SMILES is read from it. * marks the point of attachment. Cbz = O=C(OCc1ccccc1)*; CH2F = FC*
# Assays:
# [1] = test system: skeletal muscle ischemia-reperfusion injury; conditions: Iwata et al., Blood 100:2077, 2002; cited from earlier work
# [2] = test system: hind-limbs of C57BL/6 mice, ischemia-reperfusion injury; experiment: hind-limb tourniquet ischemia (90 minutes) and reperfusion (3 hours), plasma creatine kinase; format: in vivo, mouse; conditions: pretreatment
# Method: Skeletal muscle was made ischemic by applying a tourniquet to the hind-limbs of C57BL/6 mice for 90 minutes, then removing the tourniquet and allowing reperfusion for an additional 3 hours. Mice were treated with active peptide 1 (SEQ ID NO:17) or peptide 2 (SEQ ID NO:18) or peptide 3 (SEQ ID NO:19), or with the scrambled (control) peptide (SEQ ID NO:20). Peptide-1 (SEQ ID NO:17) is from the BH4 region of Bcl-2. Peptide-2 (SEQ ID NO:18) is from the first alpha helix of A1/Bfl-1. Peptide-3 (SEQ ID NO:19) is from the BH4 region of Bcl-XL. The amino acid sequences of peptide 1 (SEQ ID NO:17), peptide 2 (SEQ ID NO:18), peptide 3 (SEQ ID NO:19), and the scrambled (control) peptide (SEQ ID NO:20) are set forth in Table 1.
# At the end of the 3 hours of reperfusion the mice were killed, and blood was taken for determination of plasma creatine kinase (CK) concentration. The CK concentration was used as an indicator of muscle injury. Elevated levels of CK indicate higher levels of muscle injury. […] The CK concentration for peptide 1 (SEQ ID NO:17) treated mice was 19,020+/−5481 IU/L (n=12) compared with control peptide (SEQ ID NO:20) where CK concentration was 60,530+/−5759 IU/L (n=12). The CK concentration for peptide 2 (SEQ ID NO:18) treated mice was 33,860+/−5997 IU/L (n=11) compared with control peptide (SEQ ID NO:20) where CK concentration was 69,430+/−11,170 IU/L (n=12). The CK concentration for peptide 3 (SEQ ID NO:19) treated mice was 49,500+/−3,901 IU/L (n=5) compared with control peptide (SEQ ID NO:20) where CK concentration was 80,880+/−11,430 IU/L (n=6).
# [3] = test system: C57BL/6 mice subjected to hind limb ischemia and reperfusion; experiment: hind limb ischemia (aortic cross-clamp, 90 minutes) and reperfusion (3 hours), plasma creatine kinase; format: in vivo; conditions: 1 microgram/mouse intraperitoneally the day before, 12 mice per group
# Method: Mouse skeletal muscle was made ischemic by cross-clamping the aorta distal to the renal artery for 90 minutes, then the clamp was removed and hind limb reperfusion continued for 3 hours. At the end of reperfusion (3 hours after clamp removal) the mice were killed, and the concentration of plasma creatine kinase (CK) was measured and used as an indicator of injury (creatine kinase concentration increases as a result of skeletal muscle injury).
# Blood from EμT-Bcl-2 mice and their littermate control mice was drawn into heparin and plasma was extracted by centrifugation. One ml of plasma from EμT-Bcl-2 mice, or one ml of plasma from littermate control mice, was injected into the peritoneum of C57BL/6 mice the day before the mice were subjected to 90 minutes of ischemia and 3 hours of reperfusion as described in Example 1 herein. Blood was drawn from the mice and plasma CK concentration was determined at the end of reperfusion.
# C57BL/6 mice were injected intraperitoneally with 1 μg per mouse of recombinant human Bcl-2 (rBcl-2) (SEQ ID NO:15) or 1 μg per mouse of recombinant human ubiquitin (rUbiquitin), or the vehicle solution for rBcl-2 the day before the mice were subjected to hind limb ischemia (90 minutes) and reperfusion (180 minutes) as described in Example 1. […]
# [4] = test system: previously ischemic muscle of mice; experiment: tourniquet ischemia/reperfusion, skeletal muscle tissue viability by MTT; format: in vivo, mouse; conditions: measured the following day
# Source text: The ability of a Bcl protein to inhibit cell death in a mammal, and/or to inhibit inflammation in a mammal concurrent with or after the onset of a condition expected to lead to cell death or inflammation, can be assessed, for example, in a mammal subjected to ischemia-reperfusion injury. As used herein, “determining,” “measuring,” and “assessing,” and “assaying” are used interchangeably and include both quantitative and qualitative determinations. For example, one or more of the following markers and/or assays can be used to assess the ability of a Bcl protein to inhibit cell death and/or inflammation in a mammal subjected to ischemia-reperfusion injury: 1. […] The viability of tissue subjected to I/R was measured using 3-(4,5-dimethylthiazol-2-yl)-2,5-diphenyl tetrazolium (MTT) (Ferrera et al., J Mol Cell Cardiol 25:1091, 1993). […]
# Anesthetized mice were subjected to 90 minutes of tourniquet ischemia using a hemorrhoid ligator followed by reperfusion and were treated at various times by a subcutaneous injection of 1 microgram of either rhA1/Bfl-1 or rhBim, a pro-apoptotic Bcl-2 family member that lacks a BH4 or BH4-like domain (O'Connor et al., EMBO J. 17:384, 1998). The following day, mice were killed, the previously ischemic muscle removed, and tissue viability measured using 3-(4,5-dimethylthiazol-2-yl)-2,5-diphenyl tetrazolium (MTT). […]
# [5] = experiment peptide 2 (n=11) versus control peptide (n=12)
# [6] = experiment peptide 3 (n=5) versus control peptide (n=6)
# [7] = experiment peptide 1 (n=12) versus control peptide (n=12)
molecule,measurement,setting,value
CC(NC(=O)C(NC(=O)OCc1ccccc1)C(C)C)C(=O)NC(CC(=O)O)C(=O)CF (stereo not drawn) [z-VAD] (Cbz-Val-Ala-Asp-CH2F; configuration not given here),DNA strand-breaks after extended ischemia and reperfusion of skeletal muscle,[1],prevents the strand-breaks
same,plasma CK concentration after extended ischemia and reperfusion of skeletal muscle,[1],reduces the plasma CK concentration
"FGYIYRLAQDYLQCVLQIPZPGSGP (FGYIYRLAQDYLQCVLQIPXPGSGP; X not resolved here; also: Z at 20 undefined) [peptide 2, from the first alpha helix of A1/Bfl-1]",CK concentration,[2]; [5],"33,860+/−5997 IU/L"
MSQSNRELVVDFLSYKLSQKGYSWSQF [peptide 3],CK concentration,[2]; [6],"49,500+/−3,901 IU/L"
TGYDNREIVMKYIHYKLSQRGYEWD [peptide 1],CK concentration,[2]; [7],"19,020+/−5481 IU/L"
"TWHMYGNQRDYIGDRSKIVYKLEYE [control peptide, scrambled (control) peptide, reference compound]",CK concentration,[2]; [7],"60,530+/−5759 IU/L"
same,CK concentration,[2]; [5],"69,430+/−11,170 IU/L"
same,CK concentration,[2]; [6],"80,880+/−11,430 IU/L"
"rhA1/Bfl-1: human A1 minus 25 amino acids at the carboxy terminal and addition of 6 histidine on the remaining protein (protein, listed as Homo sapiens) MTDCEFGYIYRLAQDYLQCVLQIPQPGSGPSKTSRVLQNVAFSVQKEVEKNLKSCLDNVNVVSVDTARTLFNQVMEKEFEDGIINWGRIVTIFAFEGILIKKLLRQQIAPDVDTYKEISYFVAEFIMNNTGEWIRQNGGWENGFVKKFEPKSHHHHHH",plasma creatine kinase concentration compared to mice injected with rUbiquitin,[3],significantly (p<0.05) lower
same,average plasma creatine kinase concentration,"[3]; 90 min ischemia, 180 min reperfusion","4,353+/−1284 IU/L"
same,"tissue viability normalized to tissue dry weight (MTT), compared to rhBim","[4]; 1 microgram subcutaneous 4 hours after the start of reperfusion, FIG. 11",significantly greater tissue viability
same,"tissue viability normalized to tissue dry weight (MTT), compared to rhBim","[4]; 1 microgram subcutaneous at the time of reperfusion, FIG. 10",greater viability
